The source of these data is patent US4956355A, “Agents for the arrest and therapy of retroviral infections” (Colthurst Limited, priority 1987, dated 1990).

Like-named read-outs stand apart in the source and are kept apart here.

The subject of data set [1] is peripheral blood lymphocytes. Kind of data set: Nonspecific toxicity to peripheral blood lymphocytes. The data set is classed as cell-based, human.
Data set [2] relates to human peripheral blood mononuclear (PBM) cells infected with Epstein-Barr virus. The following applies: cited from earlier work.
The subject of a further data set is complement activation. The following applies: cited from earlier work.
The subject of data set [3] is HIV in activated peripheral blood lymphocytes. Kind of data set: Inhibition of HIV mediated cytopathic effects / p24 antigen production in activated peripheral blood lymphocytes. The data set is classed as cell-based. The conditions noted are these: for p24 antigen production: activated PBL, about 7 days after infection, FIG. 2. The procedure: (§1) 1. […] All three viral strains were grown in the Tissue Culture Laboratory of the AIDS Activity Division of San Francisco General Hospital where titers of […] infectious units per ml were routinely achieved.
(§2) 4. HIV soluble p24 antigen detection: Soluble p24 antigens were measured with the Abbott HIV antigen detection system.
(b) Although the VB T lymphoma cell line behaves in a similar manner to peripheral blood CD4 positive T lymphocytes in regard to HIV induced cytopathic effects, the above described experiments were performed on phytohemagglutinin (PHA) activated lymphocytes to determine whether lymphocytes are more or less sensitive to Compounds A and B than is the VB cell line. In this assay system, at the time that multinucleated giant cells appeared within infected lymphocyte cultures, the supernatants were analyzed for the presence of HIV p24 antigens and were titered on indicator VB lymphoma cells to determine the titer of infectious virus present at each point.
To test whether the effects of compounds A and B on acute VB T lymphoma infection would be mimicked by activated peripheral blood lymphocytes (PBC), HIV at a multiplicity of infection of one was added to lymphocytes that had been activated for 48 hours with 2 μg per ml of PHA. After the initial infection for one hour, the activated lymphocytes were washed and resuspended for the one week of culture. Multinucleated giant cells began to form approximately 7 days after the initial infection, at which time the culture supernatants were harvested and tested for the presence of HIV p24 antigens. The accumulation of HIV p24 antigens in the supernatant is representative of production of HIV from infected cells.

For data set [4] the following is noted: murine model of SLE; cited from earlier work.
In the next data set the test system is HIV in human macrophages. The data set is described as follows: Inhibition of HIV production in normal human macrophages (supernatant p24, acute infection). The data set is classed as cell-based. The procedure:
as §1
2. Source of cells: The VB cell line used in Example 1 is a T lymphoma cell line that is highly susceptible to infection with HIV, and expresses high levels of cell surface CD4 molecules. This cell line forms syncytia within two days after infection with all strains of HIV tested to date. […] This is used to quantitate infection in the absence of syncytial formation, infection being quantitated by immunofluorescence assays. The HXB/H9 cell line (Example 6) is an H9 cell population that chronically produces the HTLV-IIIB strain of HIV and is utilised in experiments testing antiviral effects on chronically infected cell lines. Human macrophages were prepared from peripheral blood mononuclear cells either obtained from the blood bank as a buffy coat, or as a leukophoresis preparation. Crowe et al. supra have devised an assay system that allows quantitation of HIV infection, and inhibition of infection using immunocytofluorographic analysis. In order to quantitate HIV infection in macrophages, they grow macrophages in Teflon (Trade Mark) culture vessels which maintain macrophages in suspension in vitro culture for up to six months. Cell surface and cytoplasmic immunofluorescence staining is then performed to quantitate antigens in macrophages by flow cytometry.
as §2
(c) To test whether Compounds A and B were effective at blocking acute infection of macrophages, macrophages from Teflon cultures were exposed at a multiplicity of 1 to HIV-DV in the presence or absence of various concentrations of drug (Examples 3-5). Normally, HIV expression peaks in human macrophages at approximately ten days after initial infection. Therefore, after infection for one hour at room temperature, followed by a wash and resuspension of the macrophages in various drug concentrations, macrophages were stained for the presence of p24 antigen at day ten. Culture supernatants from these macrophages were assayed for the presence of soluble p24, and infectious virus as described above.
To test whether compounds A and B might be active at inhibiting infection of normal human macrophages, a spectrum of drug concentrations were tested for inhibition of acute infection, and inhibition of HIV expression in chronically infected macrophages. […] After acute infection (one hour) cells were incubated in various concentrations of compounds A and B, and 7 days after the initial infection supernatants were harvested for p24 antigen quantitation. […]

The next data set deals with normal human macrophages. Kind of data set: Nonspecific toxicity to normal human macrophages. The data set is classed as cell-based. The conditions noted are these: 10^-4 to 10^-8 molar. Here is the method: 7. Analysis of nonspecific toxicity to the target cells with Compounds A and B. The VB, H9 and HXB cell lines were exposed to different concentrations of Compounds A and B as were normal human macrophages for the length of time the drug was in contact with each cell line as described in the above assays. Cell numbers were counted, and live versus dead were determined by Trypan blue exclusion assays. These tests were required to determine a therapeutic index between nonspecific toxic effects on the described cells, compared with potential effective antiviral effects in vitro (Example 6).

A short description of data set [5]: Safety of dehydroepiandrosterone in subjects. The data set is classed as in vivo, human. The procedure:
Twelve patients all of whom were sero-positive for HIV and had been diagnosed as suffering from AIDS were treated with DHEA for up to six months. The DHEA was administered in the form of hard gelatin capsules containing 100 mg of DHEA and at a rate of 100 mg to 600 mg per day. The vast majority being on 500 mg per day in divided doses. The patients were all homosexual or bisexual males with an average age of 34.5 years and an average weight of 69.6 kg.

Data set [6] deals with permeability of membranes. The following applies: cited from earlier work.
A further data set concerns NADH oxidase. The conditions noted are these: cited from earlier work.
The test system of data set [7] is glucose-6-phosphate dehydrogenase. The conditions noted are these: cited from earlier work.
The subject of another data set is mitotic activity. The following applies: cited from earlier work.

On to `C[C@]12CC[C@H](O)CC1=CC[C@@H]1[C@@H]2CC[C@]2(C)C(=O)CC[C@@H]12` [A, dehydroepiandrosterone], for which, in data set [1] (10^-4 and 10^-5 molar), the “toxicity with the PBL cultures” value is on record as “No appreciable toxicity”. Further, the “toxicity to peripheral blood lymphocytes” value in data set [1] (10^-4 to 10^-8 molar) is reported as “nor was there appreciable toxicity”. For the same compound, in data set [2], the “concentrations reducing colony forming ability” value is 10 to 100 µM. In addition, the complement activation entry in the data set with complement activation is “inhibits complement activation”. The p24 antigen production entry in [3] (10^-4 molar) was “moderately inhibited”; in [3] (10^-5 molar), “slightly less inhibited”. For the same compound, the “antiviral effects in comparison with AZT, lymphocytes” value in data set [3] (acute infection) is “inferior”. Moreover, the “antiviral effect in acute infection studies of lymphocytes” value in data set [3] (acute infection, conclusions) is “mild antiviral effect”. Also, the autoantibody formation result in data set [4] is on record as “prevents autoantibody formation”. Further, the “decrease in production of HIV p24 antigens (supernatant)” value in the data set with HIV in human macrophages (10^-4 through 10^-8 molar, 7 days after acute infection, FIG. 3) is reported as “approximately 50%”. Also, in the data set on HIV in human macrophages (in vitro, reproducible, six separate monocyte/macrophage donors), the “HIV infection and HIV expression in macrophages” value is “inhibit HIV infection and HIV expression in macrophages”. The “toxicity in normal macrophages” value with normal human macrophages is on record as “not appreciable toxicity”. The “toxicity in treatment of patients infected with HIV” value in data set [5] (general statement) is “virtual absence of toxicity”. For the same compound, the “adverse physical, biochemical or hematological effects” value in [5] (twelve subjects, daily doses of up to 600 mg for up to six months) is recorded as “complete lack of adverse physical, biochemical or hematological effects”. Moreover, the “effect on permeability of membranes” value in data set [6] was “inhibitory effect”. Further, the “effect on NADH oxidase” value with NADH oxidase is given as “inhibitory effect”. Further, the entries for the “effect on glucose-6-phosphate dehydrogenase” value in [7] and in [7] (listed as DHEA) were “inhibits glucose-6-phosphate dehydrogenase” and “inhibitory effect”, respectively. Further, the “effect on mitotic activity” value with mitotic activity is reported as “inhibitory effect”.
